This is an account of results in ChEMBL document CHEMBL1158874, “Elgonica-Dimers A and B, Two Potent Alcohol Metabolism Inhibitory Constituents of Aloe arborescens” (J Nat Prod, 1997).

The target of assay [1] is T1, Aldehyde dehydrogenase, mitochondrial (Rattus norvegicus, UniProt P11884).
T1 sequence (P11884 whole entry): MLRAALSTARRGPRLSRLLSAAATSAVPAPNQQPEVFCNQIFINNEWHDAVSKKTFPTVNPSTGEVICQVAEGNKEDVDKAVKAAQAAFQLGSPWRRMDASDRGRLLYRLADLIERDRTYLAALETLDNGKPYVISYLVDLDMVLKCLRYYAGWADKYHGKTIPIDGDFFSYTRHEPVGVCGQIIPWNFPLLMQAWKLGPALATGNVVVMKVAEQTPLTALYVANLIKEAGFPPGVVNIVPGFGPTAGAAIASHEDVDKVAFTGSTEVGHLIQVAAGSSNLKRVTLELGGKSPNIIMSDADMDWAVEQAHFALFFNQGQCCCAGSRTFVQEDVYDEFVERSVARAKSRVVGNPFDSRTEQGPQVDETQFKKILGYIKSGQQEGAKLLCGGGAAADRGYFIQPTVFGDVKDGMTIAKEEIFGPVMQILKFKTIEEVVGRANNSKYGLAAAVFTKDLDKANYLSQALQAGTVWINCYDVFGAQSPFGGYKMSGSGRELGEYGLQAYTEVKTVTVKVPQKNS
The experiment in a line: Inhibition of Sprague-Dawley rat mitochondrial aldehyde dehydrogenase.

Assay [2] in a line: Inhibition of Sprague-Dawley rat cytosolic alcohol dehydrogenase.
Assay [3] addresses T2, Aldehyde dehydrogenase, cytosolic 1 (Rattus norvegicus, UniProt P13601).
T2 sequence (P13601 whole entry): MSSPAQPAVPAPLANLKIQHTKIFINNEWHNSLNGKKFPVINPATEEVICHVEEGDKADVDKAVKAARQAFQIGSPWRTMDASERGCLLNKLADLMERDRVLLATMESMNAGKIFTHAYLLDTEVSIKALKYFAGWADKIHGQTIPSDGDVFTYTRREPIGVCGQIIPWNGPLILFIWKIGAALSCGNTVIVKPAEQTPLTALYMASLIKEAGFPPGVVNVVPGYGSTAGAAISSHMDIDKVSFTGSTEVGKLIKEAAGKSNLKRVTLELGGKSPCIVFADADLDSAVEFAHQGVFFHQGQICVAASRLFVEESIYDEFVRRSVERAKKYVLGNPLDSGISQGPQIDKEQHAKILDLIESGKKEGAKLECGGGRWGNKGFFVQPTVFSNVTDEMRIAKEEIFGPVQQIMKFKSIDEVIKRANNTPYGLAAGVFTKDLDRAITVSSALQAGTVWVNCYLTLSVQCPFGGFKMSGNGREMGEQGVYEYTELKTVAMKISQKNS
Description: Inhibition of Sprague-Dawley rat cytosolic aldehyde dehydrogenase.

In general, IC50 refers to the concentration that inhibits the measured activity by half. Read a high IC50 as a need for much substance. `O=C1c2cc(CO)cc(O)c2C(=O)c2c1ccc(C1(C3O[C@H](CO)[C@@H](O)[C@H](O)[C@H]3O)c3cccc(O)c3C(=O)c3c(O)cc(CO)cc31)c2O` (stereo partly drawn) [listing 1 of 2 here]: the figures for the IC50 in assay [1], in assay [2] and in assay [3] were 0.36 µM, 0.055 µM and 0.16 µM, respectively.
On to `O=C1c2cc(CO)cc(O)c2C(=O)c2c1ccc(C1(C3O[C@H](CO)[C@@H](O)[C@H](O)[C@H]3O)c3cccc(O)c3C(=O)c3c(O)cc(CO)cc31)c2O` (stereo partly drawn) [listing 2 of 2 here], for which the IC50 stood at 0.72 µM in assay [1], 0.011 µM in assay [2] and 0.53 µM in assay [3].
For the molecule `O=C1c2cccc(O)c2C(=O)c2c(O)cc(CO)cc21` [ALOE-EMODIN], the values for the IC50 in assay [2] and in assay [3] were 24.4 µM and 6 µM, respectively.
On to `COc1cc(-c2c(C)cc(O)cc2O[C@@H]2O[C@@H](CO)[C@@H](O)[C@H](O)[C@H]2O)oc(=O)c1` [ALOENIN], for which the IC50 in assay [2] amounted to 33.1 µM; in assay [3], 27 µM.
On to `C#CCN(C)Cc1ccccc1` [PARGYLINE], for which the IC50 in assay [1] was determined as 5.6 µM; in assay [3], 300 µM.
The molecule `c1cn[nH]c1` [PYRAZOLE] came in with an IC50 in assay [2] of 9.8 µM.
